Data: patent US4785005A, “6-(6-alkylpyridone)-carbostyril compounds and their cardiotonic uses” (Rorer Pharmaceutical Corporation, priority 1986, dated 1988)

Experiments:
[1] = test system: Peak III cAMP phosphodiesterase; experiment: Inhibition of Peak III cAMP phosphodiesterase activity; assay type: biochemical, dog; details: fold more potent than milrinone
Text: The following in vitro method is another means for measuring the inotropic potency of the present compounds. This method is a modification of the enzyme inhibition method reported by Thompson, W. J. and Appleman, M. M., "Characterization of Cyclic Nucleotide Phosphodiesterase of Rat Tissue," J. Biological Chemistry, Vol. 246, pp. 3145-3150 (1971); and Thompson, W. J., Brooker, G. and Appleman, M. M., "Assay of Cyclic Nucleotide Phosphodiesterase with Radioactive Substrates," Methods in Enzymology, Vol. 38, pp. 205-212 (1974); and is believed to correlate to in vivo intropic activity in humans.
The test compounds are included in media comprising a radioactively labeled substrate (^3 H-cyclic nucleotide) such as adenosine 3':5'-monophosphate (cyclic AMP) and guanosine-3':5'-monophosphate(cyclic GMP), and a non-rate-limiting amount of 5'-nucleotidease isolated from a dog heart. The inhibition of the enzyme hydrolysis of the 5'-nucleotide product of the cNUC-PDEase to the corresponding nucleoside is measured by separating the charged, unhydrolyzed substrate from the uncharged hydrolysis product. Separation may be acheived either chromatographically from the uncharged nucleoside product of the assay with ion-exchange resin or preferentially quenched with the ion-exchange resin so that it is not quantitated with the liquid scintillation counter.

[2] = test system: anesthetized dog (myocardial contractile force, heart rate, arterial pressure, aortic flow); experiment: Ganglionic-beta blocked anesthetized dog procedure; assay type: in vivo; details: for ED50: Canis lupus familiaris, iv, read-out: inotropic ED50
Description: Adult mongrel dogs of either sex weighing 10 to 16 kg are fasted overnight, anesthetized with pentobarbital sodium 35 mg/kg, i.v. intubated, respired with room air using a Harvard respirator, and instrumented surgically to monitor myocardial contractile force, heart rate, arterial pressure, aortic flow and EKG limb lead II. The aforesaid measurements are recorded continously on a strip chart recorder.
Myocardial contractile force is monitored by a a Walton-Brodie strain gauge sutured to the left ventricular myocardium parallel to the left anterior descending coronary artery. Arterial pressure is measured using a fluid-filled catheter attached to a pressure transducer introduced via the right femoral artery and positioned in the thoracic aorta. Mean arterial pressure is determined by electronically clamping the pulsatile pressure signal. Aortic flow is monitored using a precalibrated, noncannulating electromagnetic flow probe positioned around the thoracic aorta. Heart rate is monitored using a cardiotachometer triggered by the QRS complex of the limb lead II EKG. The right femoral vein is cannulated for intravenous infusion of drugs. Body temperature is maintained at 37±1° C.
Following a 30 min postsurgical stabilization period, control values are recorded. Myocardial depression is induced by ganglionic and beta receptor blockade. Initially, the responsiveness of the autonomic nervous system is assessed by performing a 30 sec bilateral carotid occlusion (BCO). Ten minutes later, a saline solution of isoproterenol 0.3 mcg/kg i.v. is administered to assess beta receptor integrity. Ten minutes after that, a saline solution of mecamylamine 2 mg/kg i.v. is infused, followed by a saline solution of propranolol 1 mg/kg i.v. plus 0.3 mg/kg/hr. […] Ten minutes later, the test compound or vehicle is administered intravenously in ascending doses at 30 min intervals at […] in a total volume of 3.5 ml. On completion of the experiment, both BCO and isoproterenol challenges are repeated to verify ganglionic and beta blockade.
Solutions of the most preferred compound of the present invention, 6-[3'-cyano-6'-methyl-2'-oxo(1H)pyridin-5'-yl]-3,4-dihydrocarbostyril, and milrinone, 3-cyano-6-methyl-5-(4-pyridyl)-pyridin-2-one, were administered intravenously in accordance with the procedure described above. The solutions were prepared by dissolution in PEG 200 followed by serial saline dilution to yield test doses. Test solutions of 6-[3'-cyano-6'-methyl-2'-oxo(1H)pyridin-5'-yl]-3,4-dihydrocarbostyril were prepared at doses of 3, 10 and 30 mcg (expressed as base) per kg, and solutions of milrinone were prepared at test doses of 30, 100 and 300 mcg/kg.

[3] = 30 mcg/kg i.v., ganglionic-beta blocked anesthetized dog
[4] = ganglionic-beta blocked anesthetized dog
[5] = 100 mcg/kg i.v., ganglionic-beta blocked anesthetized dog

## Cc1[nH]c(=O)c(C#N)cc1-c1ccc2c(c1)CCC(=O)N2 [6-[3'-Cyano-6'-methyl-2'-oxo(1H)pyridin-5'-yl]-3,4-dihydrocarbostyril]
[1]
  potency in Peak III phosphodiesterase inhibition relative to milrinone: about twelve
[2]; [3]
  increase in contractile force (maximum): 97%
  increase in heart rate: 17%
[2]; [4]
  ED50: 0.016 mg/kg
[2]; i.v., at the doses tested (3, 10 and 30 mcg/kg)
  arterial blood pressure: not altered
[2]; i.v., doses of 3, 10 and 30 mcg/kg tested
  increase in aortic blood flow (maximum): 51%

## Cc1[nH]c(=O)c(C#N)cc1-c1ccncc1 [milrinone, 3-cyano-6-methyl-5-(4-pyridyl)-pyridin-2-one, reference compound]
[2]; [5]
  increase in contractile force: 111%
  increase in heart rate: 19%
[2]; [4]
  ED50: 0.05 mg/kg
[2]; i.v., dose-related, sustained, doses of 30, 100 and 300 mcg/kg tested
  maximum decrease of mean arterial pressure: 32%
[2]; i.v., doses of 30, 100 and 300 mcg/kg tested
  increase in aortic blood flow (in words): only transiently at low dose
